Earlier results as cited in US20110200632A1, “ADJUVANTING MATERIAL” (Lipotek Pty Ltd., priority 2005, published 2011).

Tested on: splenocytes and macrophages
Conditions: versus Pam3Cys

## CCCCCCCCCCCCCCCC(=O)OCC(CSC[C@H](N)C(=O)O)OC(=O)CCCCCCCCCCCCCCC (stereo partly drawn) [Pam2Cys, S-[2,3-bis(palmitoyloxy)propyl]cysteine]
  stimulator of splenocytes and macrophages, compared with Pam3Cys: more potent
